# Assay results published in patent US6344468B1, “Substituted isoindolones and their use as cyclic GMP modulators in medicaments” (Aventis Pharma Deutschland GmbH, priority 1998, dated 2002).
# Target: T1, soluble guanylate cyclase (sGC) (Bos taurus, UniProt P16068+P19687)
# T1 construct: The sGC which was employed had been isolated from bovine lung; from tissue; host or cells: bovine lung
# T1 sequence (P16068 1-619): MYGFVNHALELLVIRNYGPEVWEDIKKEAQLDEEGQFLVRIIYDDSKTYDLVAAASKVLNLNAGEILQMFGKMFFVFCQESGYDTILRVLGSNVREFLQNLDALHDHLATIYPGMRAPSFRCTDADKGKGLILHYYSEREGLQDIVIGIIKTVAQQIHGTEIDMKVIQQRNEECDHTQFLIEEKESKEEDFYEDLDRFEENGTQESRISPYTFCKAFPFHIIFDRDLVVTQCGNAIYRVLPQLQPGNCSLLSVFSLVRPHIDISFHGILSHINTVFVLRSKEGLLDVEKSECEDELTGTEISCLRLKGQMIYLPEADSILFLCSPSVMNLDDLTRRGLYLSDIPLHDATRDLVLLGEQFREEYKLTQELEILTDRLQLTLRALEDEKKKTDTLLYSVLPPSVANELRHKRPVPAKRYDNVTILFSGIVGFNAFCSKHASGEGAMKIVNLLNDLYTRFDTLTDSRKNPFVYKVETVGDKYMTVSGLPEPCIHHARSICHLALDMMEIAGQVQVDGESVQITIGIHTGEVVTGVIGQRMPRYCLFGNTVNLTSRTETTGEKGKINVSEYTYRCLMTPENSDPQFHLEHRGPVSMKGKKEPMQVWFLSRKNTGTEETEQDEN
# T1 sequence (P19687 1-691): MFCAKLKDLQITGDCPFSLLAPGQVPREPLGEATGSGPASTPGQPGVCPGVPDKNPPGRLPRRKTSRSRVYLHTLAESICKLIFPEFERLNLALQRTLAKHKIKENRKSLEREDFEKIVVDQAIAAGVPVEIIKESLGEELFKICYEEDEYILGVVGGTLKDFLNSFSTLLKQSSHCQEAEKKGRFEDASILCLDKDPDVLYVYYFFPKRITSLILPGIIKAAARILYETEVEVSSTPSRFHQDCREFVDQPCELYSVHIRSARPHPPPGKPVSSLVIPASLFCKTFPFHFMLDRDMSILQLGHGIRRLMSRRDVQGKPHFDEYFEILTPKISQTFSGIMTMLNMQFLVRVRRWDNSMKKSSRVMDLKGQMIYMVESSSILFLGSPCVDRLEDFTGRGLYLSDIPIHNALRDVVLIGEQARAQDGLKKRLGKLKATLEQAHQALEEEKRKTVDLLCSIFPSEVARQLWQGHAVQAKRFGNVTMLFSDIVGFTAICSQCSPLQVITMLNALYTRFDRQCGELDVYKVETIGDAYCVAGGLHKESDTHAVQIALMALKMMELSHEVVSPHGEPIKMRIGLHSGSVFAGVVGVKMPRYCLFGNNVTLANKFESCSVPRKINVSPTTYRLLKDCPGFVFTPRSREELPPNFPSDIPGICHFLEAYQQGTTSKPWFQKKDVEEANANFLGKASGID
# Assay: Activation of the soluble guanylate cyclase (cGMP enzyme immunoassay)
# Type: biochemical
# Conditions: sGC isolated from bovine lung; concentration 50 μM; n-fold stimulation of basal enzyme activity = [cGMP]test substance/[cGMP]control
# Procedure: The activation of the soluble guanylate cyclase (sGC), which catalyzes the conversion of guanosine triphosphate (GTP) into cyclic guanosine monophosphate (cGMP) and pyrophosphate, by the compounds according to the invention was quantified with the aid of an enzyme immunoassay (EIA) from Amersham. To this end, the substances to be tested were initially incubated with sGC in microtiter plates, and the amount of the cGMP formed was then determined.
# The sGC which was employed had been isolated from bovine lung (see Methods in Enzymology, volume 195, p. 377). The test solutions (100 μl per well) contained 50 mM triethanolamine (TEA) buffer (pH 7.5), 3 mM MgCl2, 3 mM reduced glutathione (GSH), 0.1 mM GTP, 1 mM 3-isobutyl-1-methylxanthine (IBMX), suitably diluted enzyme solution and the substance to be tested or, in control experiments, the solvent. The substances to be tested were dissolved in dimethyl sulfoxide (DMSO) and the solution was diluted with DMSO/water, so that the final concentration of the substance to be tested in the test mixture was 50 μM. The DMSO concentration in the test mixture was 5% (v/v). The reaction was initiated by addition of the sGC. The reaction mixture was incubated at 37° C. for 15 to 20 minutes and the reaction was then stopped by ice-cooling and addition of the stop reagent (50 mM EDTA, pH 8.0). An aliquot of 50 μl was taken and used for determining the cGMP content using the acetylation protocol of the Amersham cGMP-EIA kit. The absorption of the samples was measured at 450 nm (reference wavelength 620 nm) in a microtiter plate reader. The cGMP concentration was determined using a standard curve which was obtained under the same test conditions. The activation of sGC by a test substance is reported as the n-fold stimulation of the basal enzyme activity which was found in the control experiments (using solvent instead of test substance) (calculated using the formula
# n-fold stimulation=[cGMP]test substance/[cGMP]control).
row,n-fold stimulation,Compound
1,2-fold,"OCc1ccc(-c2nn(Cc3ccccc3)c3ccccc23)o1 [A, 1-benzyl-3-(5-hydroxymethyl-2-furyl)-indazole, reference compound]"
2,16-fold,"COc1cccc(CCN2C(=O)c3ccccc3C2(O)c2ccc(F)cc2)c1 (stereo not shown) [Example 17, 3-(4-Fluorophenyl)-3-hydroxy-2-(2-(3-methoxyphenyl)ethyl)-2,3-dihydro-isoindol-1-one]"
3,9.5-fold,"COc1cccc(CCN2C(=O)c3c(F)c(F)c(F)c(F)c3C2(O)c2ccc(F)cc2)c1 (stereo not shown) [Example 33, 4,5,6,7-Tetrafluoro-3-(4-fluorophenyl)-3-hydroxy-2-(2-(3-methoxyphenyl)-ethyl)-2,3-dihydroisoindol-1-one]"
4,11.8-fold,"COc1cccc(CCN2C(=O)c3ccccc3C2(O)c2ccncc2)c1 (stereo not shown) [Example 29, 3-Hydroxy-2-(2-(3-methoxyphenyl)ethyl)-3-(4pyridyl)-2,3-dihydroisoindol-1-one]"
